Test results reported in ChEMBL document CHEMBL4033749, “Synthesis and biological evaluation of 5-fatty-acylamido-1, 3, 4-thiadiazole-2-thioglycosides” (Bioorg Med Chem Lett, 2017).
≈ marks a conversion by molar mass, not a printed value. Calls of active or inactive are those of the source. No cut-off for these calls is given here.

Experiments:
[1] = tested on: Klebsiella pneumoniae; assay: Antibacterial activity Klebsiella pneumoniae MTCC 618 by agar well method; type: functional
[2] = tested on: Pseudomonas aeruginosa; assay: Antibacterial activity Pseudomonas aeruginosa MTCC 1688 by agar well method; type: functional
[3] = tested on: Bacillus subtilis; assay: Antibacterial activity Bacillus subtilis MTCC 441 by agar well method; type: functional
[4] = tested on: Staphylococcus epidermidis; assay: Antibacterial activity Staphylococcus epidermidis MTCC 9041 by agar well method; type: functional
[5] = tested on: Staphylococcus aureus; assay: Antibacterial activity Staphylococcus aureus MTCC 96 by agar well method; type: functional
[6] = tested on: Escherichia coli; assay: Antibacterial activity Escherichia coli MTCC 443 by agar well method; type: functional
[7] = tested on: DU-145; assay: Cytotoxicity against human DU145 cells incubated for 24 hrs by MTT asasy; type: functional, cell-based
[8] = tested on: CHO-K1; assay: Cytotoxicity against CHOK1 cells incubated for 24 hrs by MTT asasy; type: cell-based, Cricetulus griseus
[9] = tested on: MDA-MB-231; assay: Cytotoxicity against human MDA-MB-231 cells incubated for 24 hrs by MTT asasy; type: functional, cell-based
[10] = tested on: HeLa; assay: Cytotoxicity against human HeLa cells incubated for 24 hrs by MTT asasy; type: functional, cell-based
[11] = tested on: SK-OV-3; assay: Cytotoxicity against human SKOV3 cells incubated for 24 hrs by MTT asasy; type: functional, cell-based
[12] = Cricetulus griseus, CHO-K1, 24 h, read-out: IC50
[13] = Homo sapiens, DU-145, 24 h, read-out: IC50
[14] = Homo sapiens, MDA-MB-231, 24 h, read-out: IC50
[15] = Homo sapiens, HeLa, 24 h, read-out: IC50
[16] = Homo sapiens, SK-OV-3, 24 h, read-out: IC50

SMILES | MIC [1] | MIC [2] | MIC [3] | MIC [4] | MIC [5] | MIC [6] | IC50 ([7]; du-145) | IC50 [8, 12] [µM] | IC50 ([9]; mda-mb-231) | IC50 ([10]; hela) | IC50 ([11]; sk-ov-3) | IC50 [7, 13] [µM] | IC50 [9, 14] [µM] | IC50 [10, 15] [µM] | IC50 ([8]; cho-k1) | IC50 [11, 16] [µM]
CN[C@@H]1[C@H](O[C@H]2[C@H](O[C@H]3[C@H](O)[C@@H](O)[C@H](N=C(N)N)[C@@H](O)[C@@H]3N=C(N)N)O[C@@H](C)[C@]2(O)C=O)O[C@@H](CO)[C@H](O)[C@H]1O [STREPTOMYCIN] | 3.12 µg/mL (≈ 5.37 µM) | 1.56 µg/mL (≈ 2.69 µM) | 6.25 µg/mL (≈ 10.7 µM) | 3.12 µg/mL (≈ 5.37 µM) | 6.25 µg/mL (≈ 10.7 µM) | 6.25 µg/mL (≈ 10.7 µM) |  |  |  |  |  |  |  |  |  | 
CO[C@@]12[C@H](COC(N)=O)C3=C(C(=O)C(C)=C(N)C3=O)N1C[C@@H]1N[C@@H]12 [MITOMYCIN] |  |  |  |  |  |  | Not Active | 13.2 to 13.4 | Not Active | Not Active | Not Active |  |  |  |  | 
CCCCCCCCCCCC(=O)Nc1nnc(S[C@@H]2O[C@H](COC(C)=O)[C@H](OC(C)=O)[C@H](OC(C)=O)[C@H]2OC(C)=O)s1 | inactive | inactive | inactive | inactive | inactive | inactive |  | 27.7 |  |  | Not Active | 16.9 | 26.7 | 51.9 |  | 
COc1cccc2c1C(=O)c1c(O)c3c(c(O)c1C2=O)C[C@@](O)(C(=O)CO)C[C@@H]3O[C@H]1C[C@H](N)[C@H](O)[C@H](C)O1 [DOXORUBICIN] |  |  |  |  |  |  |  |  |  |  |  | 0.7 to 0.8 | 0.7 to 0.8 | 0.7 | Not Active | 0.7 to 0.8
CCCCCCCCCC(=O)Nc1nnc(S[C@@H]2O[C@H](COC(C)=O)[C@H](OC(C)=O)[C@H](OC(C)=O)[C@H]2OC(C)=O)s1 | inactive | inactive | inactive | inactive | inactive | inactive |  | 19.4 |  |  | Not Active | 34.4 | 19.2 | 44.9 |  | 
C=CCCCCCCCCC(=O)Nc1nnc(S[C@@H]2O[C@H](CO)[C@H](O)[C@H](O)[C@H]2O)s1 | > 150 µg/mL | > 150 µg/mL | > 150 µg/mL | > 150 µg/mL | > 150 µg/mL | > 150 µg/mL | Not Active |  |  |  | Not Active |  | 80.6 | 58.3 | Not Active | 
CCCCCCCC/C=C\CCCCCCCCCCCC(=O)Nc1nnc(S[C@@H]2O[C@H](CO)[C@H](O)[C@H](O)[C@H]2O)s1 | > 150 µg/mL | > 150 µg/mL | > 150 µg/mL | > 150 µg/mL | > 150 µg/mL | > 150 µg/mL | Not Active |  |  |  | Not Active |  | 70.4 | 13.5 | Not Active | 
CCCCCCCCCCCCCCCCCC(=O)Nc1nnc(S[C@@H]2O[C@H](CO)[C@H](O)[C@H](O)[C@H]2O)s1 | > 150 µg/mL | > 150 µg/mL | > 150 µg/mL | > 150 µg/mL | > 150 µg/mL | > 150 µg/mL | Not Active |  |  |  | Not Active |  | 67.1 | 11.2 | Not Active | 
CCCCCCCCCCCCCC(=O)Nc1nnc(S[C@@H]2O[C@H](COC(C)=O)[C@H](OC(C)=O)[C@H](OC(C)=O)[C@H]2OC(C)=O)s1 | inactive | inactive | inactive | inactive | inactive | inactive |  | 16.3 |  |  | Not Active | 34.7 | 26.2 | 61.3 |  | 
CCCCCCCCCCCCCCCC(=O)Nc1nnc(S[C@@H]2O[C@H](CO)[C@H](O)[C@H](O)[C@H]2O)s1 | > 150 µg/mL | > 150 µg/mL | > 150 µg/mL | > 150 µg/mL | > 150 µg/mL | > 150 µg/mL | Not Active |  |  |  | Not Active |  | 62.3 | 14.2 | Not Active | 
CCCCCCCC(=O)Nc1nnc(S[C@@H]2O[C@H](CO)[C@H](O)[C@H](O)[C@H]2O)s1 | > 150 µg/mL | > 150 µg/mL | > 150 µg/mL | > 150 µg/mL | > 150 µg/mL | > 150 µg/mL | Not Active | 60.1 |  |  |  |  | 30.8 | 50.8 |  | 56
CCCCCCCC/C=C\CCCCCCCCCCCC(=O)Nc1nnc(S[C@@H]2O[C@H](COC(C)=O)[C@H](OC(C)=O)[C@H](OC(C)=O)[C@H]2OC(C)=O)s1 | inactive | inactive | inactive | inactive | inactive | inactive |  | 25.2 |  |  | Not Active | 28.4 | 25.3 | 58.5 |  | 
CCCCCCCCCCCC(=O)Nc1nnc(S[C@@H]2O[C@H](CO)[C@H](O)[C@H](O)[C@H]2O)s1 | 12.5 µg/mL (≈ 26.2 µM) | > 150 µg/mL | 25 µg/mL (≈ 52.3 µM) | > 150 µg/mL | > 150 µg/mL | > 150 µg/mL | Not Active |  |  |  | Not Active |  | 32 | 8.7 | Not Active | 
C=CCCCCCCCCC(=O)Nc1nnc(S[C@@H]2O[C@H](COC(C)=O)[C@H](OC(C)=O)[C@H](OC(C)=O)[C@H]2OC(C)=O)s1 | inactive | inactive | inactive | inactive | inactive | inactive |  | 16.3 |  |  | Not Active | 22.9 | 60.9 | 77.7 |  | 
CCCCCC(=O)Nc1nnc(S[C@@H]2O[C@H](COC(C)=O)[C@H](OC(C)=O)[C@H](OC(C)=O)[C@H]2OC(C)=O)s1 | inactive | inactive | inactive | inactive | inactive | inactive | Not Active | 24.4 |  |  | Not Active |  | 25.4 | 19.8 |  | 
CCCCCC(=O)Nc1nnc(S[C@@H]2O[C@H](CO)[C@H](O)[C@H](O)[C@H]2O)s1 | > 150 µg/mL | > 150 µg/mL | > 150 µg/mL | > 150 µg/mL | > 150 µg/mL | > 150 µg/mL | Not Active |  |  |  | Not Active |  | 28.7 | 45.6 | Not Active | 
CCCCCCCCCCCCCC(=O)Nc1nnc(S[C@@H]2O[C@H](CO)[C@H](O)[C@H](O)[C@H]2O)s1 | 25 µg/mL (≈ 49.4 µM) | > 150 µg/mL | 50 µg/mL (≈ 98.9 µM) | > 150 µg/mL | > 150 µg/mL | > 150 µg/mL | Not Active |  |  |  | Not Active |  | 33.3 | 31 | Not Active | 
CC1(C)S[C@@H]2[C@H](NC(=O)Cc3ccccc3)C(=O)N2[C@H]1C(=O)O [PENICILLIN G] | 6.25 µg/mL (≈ 18.7 µM) | 12.5 µg/mL (≈ 37.4 µM) | 1.56 µg/mL (≈ 4.67 µM) | 3.12 µg/mL (≈ 9.35 µM) | 1.56 µg/mL (≈ 4.67 µM) | 12.5 µg/mL (≈ 37.4 µM) |  |  |  |  |  |  |  |  |  | 
